Values joined by “and” are separate entries in the source; they are usually repeats but may differ in a detail not shown here. Equal values may be shown once.
Target: SARS-CoV-2 NSP3 Mac1 (Severe acute respiratory syndrome coronavirus 2, UniProt P0DTD1)
Experiment: biochemical
Format: binding
Details: for inhibition at 125 µM / IC50 in µM / Inhibition at top concentration of 125 µM (%) / IC50: MIDAS hit compounds and analogues; for inhibition at 125 µM: read-out: Inhibition at top concentration of 125 µM (%); for IC50 in µM / IC50: top concentration 125 µM, 8-point 1:1 dilution; for IC50: read-out: IC50; for NSP3 Mac1 inhibition at 50 µM (%): FDA-approved compound library primary screen, single shot
[1] = MIDAS compound library primary screen
[2] = BioAscent virtual screening hit compounds, duplicate

Compound	inhibition at 125 µM	IC50 in µM (duplicate)	further results
CCCNC(=O)c1cc(-c2ccc(OC)cc2)nc2ccccc12 [IAL-MD0098, CCCNC(=O)C=1C=C(N=C2C=CC=CC12)C=3C=CC(OC)=CC3]	22%	Not measurable	
CC1c2cccn2CCN1C(=O)c1cc(-c2cccs2)nc2c1cnn2C(C)C (stereo not shown) [IAL-MD0072, CC(C)N1N=CC=2C(=CC(=NC12)C3=CC=CS3)C(=O)N4CCN5C=CC=C5C4C]	9.8%	Not measurable	
O=C(Nc1ccc2cc[nH]c2c1)c1csc(NCC2CCCO2)n1 (stereo not shown) [ARUK4000671-001-001, O=C(Nc1ccc2cc[nH]c2c1)c1csc(n1)NCC1CCCO1]			inhibition at 25 µM [1]: 106%
CC(C)n1ncc2c(C(=O)N3CCC(C)(CO)CC3)cc(-c3cccs3)nc21 [IAL-MD0106, CC(C)N1N=CC=2C(=CC(=NC12)C3=CC=CS3)C(=O)N4CCC(C)(CO)CC4]	32.1%	Not measurable	
CCn1ncc2c(C(=O)NCc3ccc(OC)nc3)cc(-c3cccs3)nc21 [IAL-MD0117, CCN1N=CC=2C(=CC(=NC12)C3=CC=CS3)C(=O)NCC=4C=CC(OC)=NC4]	9.7%	Not measurable	
Cn1ccc2c(-c3ccc(C(=O)N4CCOCC4)o3)ccnc21 [IAL-MD0131, O=C(C1=CC=C(C2=C3C(N(C)C=C3)=NC=C2)O1)N4CCOCC4]			Inhibition at top concentration of 125 µM (%): Not measurable due to compound precipitation; IC50 (duplicate): 4.9 µM
CCn1ncc2c(C(=O)NC(C)c3ccccn3)cc(-c3cccs3)nc21 (stereo not shown) [IAL-MD0119, CCN1N=CC=2C(=CC(=NC12)C3=CC=CS3)C(=O)NC(C)C=4C=CC=CN4]	6.3%	Not measurable	
CC(C)n1ncc2c(C(=O)N3CC(=O)Nc4ccccc43)cc(-c3cccs3)nc21 [IAL-MD0049, CC(C)N1N=CC=2C(=CC(=NC12)C3=CC=CS3)C(=O)N4CC(=O)NC=5C=CC=CC45]	14.3%	Not measurable	
COc1ccc(-c2cc(C(=O)O)c3cc(NC(C)=O)ccc3n2)cc1 [IAL-MD0031, COC=1C=CC(=CC1)C=2C=C(C(=O)O)C=3C=C(NC(=O)C)C=CC3N2]	81.3%		inhibition at 25 µM [1]: 48%; IC50 (duplicate): 19 µM and 19.3 µM
CN(C)c1ccc(-c2ccc3ccccc3n2)cc1 [BCC0083752, CN(C)c1ccc(-c2ccc3ccccc3n2)cc1]			inhibition at 25 µM [2]: 46.8%
CC(C)n1ncc2c(C(=O)N3CCCC(C)(O)C3)cc(-c3cccs3)nc21 (stereo not shown) [IAL-MD0086, CC(C)N1N=CC=2C(=CC(=NC12)C3=CC=CS3)C(=O)N4CCCC(C)(O)C4]	47.7%	Not measurable	
CCn1ncc2c(C(=O)NCCNC(C)=O)cc(-c3cccs3)nc21 [IAL-MD0092, CCN1N=CC=2C(=CC(=NC12)C3=CC=CS3)C(=O)NCCNC(=O)C]	17.1%	Not measurable	
O=C(O)c1cc(-c2ccc(OC(F)F)cc2)nc2ccccc12 [IAL-MD0089, OC(=O)C=1C=C(N=C2C=CC=CC12)C=3C=CC(OC(F)F)=CC3]	5.7%	Not measurable	
CC(C)n1ncc2c(C(=O)N3CCc4ccccc4C3)cc(-c3cccs3)nc21 [IAL-MD0060, CC(C)N1N=CC=2C(=CC(=NC12)C3=CC=CS3)C(=O)N4CCC=5C=CC=CC5C4]	1.9%	Not measurable	
Cc1cc2nn(-c3ccccc3)nc2cc1N [BCC0086077, Cc1cc2nn(-c3ccccc3)nc2cc1N]			inhibition at 25 µM [2]: 67.8%
Chlorophyllide Cu complex Na salt [reference compound]			NSP3 Mac1 inhibition at 50 µM (%): 106.7%; NSP3 Mac1 inhibition at 50 µM (%) (listed as chlorophyllide–copper complex): 106%
CC(C#N)NC(=O)c1cc(-c2cccs2)nc2c1cnn2C(C)C (stereo not shown) [IAL-MD0095, CC(C)N1N=CC=2C(=CC(=NC12)C3=CC=CS3)C(=O)NC(C)C#N]	19.8%	Not measurable	

Compound	inhibition at 125 µM	IC50 in µM (duplicate)	further results
CC(=O)c1ccc(-c2ccc(N)cc2)o1 [BCC0119417, CC(=O)c1ccc(-c2ccc(N)cc2)o1]			inhibition at 25 µM [2]: 59.3%
Cc1cc(CN(C)C(=O)c2cc(-c3cccs3)nc3c2cnn3C(C)C)no1 [IAL-MD0073, CC(C)N1N=CC=2C(=CC(=NC12)C3=CC=CS3)C(=O)N(C)CC=4C=C(C)ON4]	47%	Not measurable	
CCC(C)NC(=O)c1cc(-c2ccc(OC)cc2)nc2ccccc12 (stereo not shown) [IAL-MD0035, CCC(C)NC(=O)C=1C=C(N=C2C=CC=CC12)C=3C=CC(OC)=CC3]	6.8%	Not measurable	
CN(C)C(=O)c1ccc(-c2ccnc3c2ccn3C)o1 [IAL-MD0133, O=C(N(C)C)C1=CC=C(C2=C3C(N(C)C=C3)=NC=C2)O1]			Inhibition at top concentration of 125 µM (%): Not measurable due to compound precipitation; IC50 (duplicate): 8.5 µM
CCCN(CC(=O)Nc1ccccc1C)C(=O)c1cc(-c2cccs2)nc2c1cnn2CC [IAL-MD0093, CCCN(CC(=O)NC=1C=CC=CC1C)C(=O)C=2C=C(N=C3N(CC)N=CC23)C4=CC=CS4]	7.7%	Not measurable	
CC(C)n1ncc2c(C(=O)N3CCNC(=O)C3)cc(-c3cccs3)nc21 [IAL-MD0064, CC(C)N1N=CC=2C(=CC(=NC12)C3=CC=CS3)C(=O)N4CCNC(=O)C4]	78.7%		IC50 (duplicate): 25 µM and 25.2 µM
CONC(=O)c1cc(-c2ccc(OC)cc2)nc2ccccc12 [IAL-MD0024, CONC(=O)C=1C=C(N=C2C=CC=CC12)C=3C=CC(OC)=CC3]	60.3%		IC50 (duplicate): 68 µM
COc1ccc(-c2cc(C(=O)Nc3ccc4ccccc4c3)c3ccccc3n2)cc1 [IAL-MD0118, COC=1C=CC(=CC1)C=2C=C(C(=O)NC=3C=CC=4C=CC=CC4C3)C=5C=CC=CC5N2]	25.6%	Not measurable	
CC(=O)N1CCN(C(=O)c2cc(-c3cccs3)nc3c2c(C)nn3C)CC1 [IAL-MD0054, CC(=O)N1CCN(CC1)C(=O)C=2C=C(N=C3N(C)N=C(C)C23)C4=CC=CS4]	41.5%	Not measurable	
CCCCCCCC/C=C\CCCCCCCC(=O)O.NCCO [Ethanolamine oleate, reference compound]			NSP3 Mac1 inhibition at 50 µM (%): 56.1%
CN1CCC(Cn2ccnc2-c2ccc(-c3ccccc3C#N)o2)C1 (stereo not shown) [IAL-MD0129, N#CC1=CC=CC=C1C2=CC=C(C3=NC=CN3CC4CN(C)CC4)O2]			inhibition at 25 µM [1]: 55%; Inhibition at top concentration of 125 µM (%): Not measurable due to compound precipitation; IC50 (duplicate): 14.2 µM
COc1ccc(-c2cc(C(=O)O)c3c(C)cc(C)cc3n2)cc1 [IAL-MD0029, COC=1C=CC(=CC1)C=2C=C(C(=O)O)C=3C(C)=CC(C)=CC3N2]	61.2%		IC50 (duplicate): 76 µM and 75.9 µM
O=C(O)CCc1nc(-c2ccccc2)c(-c2ccccc2)o1 [oxaprozin, reference compound]			inhibitory activity in FDA-approved library screen (primary screen at the set screening concentration): could not be identified in our screen
CCn1ncc2c(C(=O)Nc3ccc(C(N)=O)cc3)cc(-c3cccs3)nc21 [IAL-MD0097, CCN1N=CC=2C(=CC(=NC12)C3=CC=CS3)C(=O)NC=4C=CC(=CC4)C(=O)N]	7.7%	Not measurable	
CCn1ncc2c(C(=O)N(Cc3ccccn3)C(C)C)cc(-c3ccccc3)nc21 [IAL-MD0109, CCN1N=CC=2C(=CC(=NC12)C=3C=CC=CC3)C(=O)N(CC=4C=CC=CN4)C(C)C]		Not measurable	Inhibition at top concentration of 125 µM (%): Not measurable
CCN1C(=O)c2cccc3c(S(=O)(=O)O)ccc1c23 [BCC0032304, CCN1C(=O)c2cccc3c(S(=O)(=O)O)ccc1c23]			inhibition at 25 µM [2]: 36.4%

Source: paper PMC9965906, “Discovery and Development Strategies for SARS-CoV-2 NSP3 Macrodomain Inhibitors” (Pathogens, 2023)
